Reference: patent US20230130103A1, “TARGETED PHARMACOLOGICAL THERAPEUTICS IN UVEAL MELANOMA” (Washington University, priority 2017, published 2023)
“Also recorded” adds a separate entry of the source. Starred links: 1 amine or outer side, 2 acyl side, 3 side chain; linkers in the order of their positions; H or OH if unused. Positions of bridges follow the written chain, without caps; N, C: chain ends. Non-standard residues stand in square brackets, D forms with d. Residues, ends and D or L forms follow the SMILES beside them. *: point of attachment. Leu(3R-OH,Nα-propionyl) = CCC(=O)N[C@H](C(=O)*)[C@H](O)C(C)C; X1 = CC(C)[C@@H](O[*:3])[C@H](N[*:1])C(=O)[*:2]; X2 = CC(C)[C@H](O[*:3])[C@@H](N[*:1])C(=O)[*:2]; NMeaThr = CN[C@H](C(=O)O)[C@H](C)O; dPhLac = O=C(O)[C@H](O)Cc1ccccc1; NMeA = CN[C@@H](C)C(=O)O; NMeDha = C=C(NC)C(=O)O

How the values were obtained:
OCM-1A cells = test: YAP-driven transcriptional reporter; format: cell-based, Human; conditions: FIG. 6B
Experimental: (§1) Expression data from two experimental replicates are mean-centered; the color gradient corresponds to difference in log 2 ratio of expression from the mean, such that 0.5 versus −0.5 is a total difference of 2-fold in unlogged expression.
(§2) Assays of transcriptional reporters driven by YAP or Gα subunits were performed as described (42, 43). YAP- or Ga-driven firefly luciferase activity was normalized to Renilla luciferase expressed from a constitutive promoter.

Mel202 cells [1] = test: YAP-driven transcriptional reporter; format: cell-based; conditions: Homo sapiens, FIG. 6B, read-out: EC50, increase in expression of YAP-driven transcriptional reporter
Experimental: as §1, §2

92.1 cells = test: YAP-driven transcriptional reporter; format: cell-based; conditions: Homo sapiens, FIG. 6B, read-out: EC50, increase in expression of YAP-driven transcriptional reporter
Experimental: as §1, §2

OCM-1A UM cells = test: qPCR validation of FR target genes; format: cell-based, Human; conditions: OCM-1A cells; FIG. 10
Experimental: (§3) The results for six genes showing significant changes in expression in response to FR by RNA-Seq were validated by qPCR.
(§4) 92.1 UM cells were treated with 100 nM FR or vehicle (DMSO) in RPMI growth medium and collected after 1 and 3 d of treatment. RNA was isolated using the RNeasy Mini Kit (Qiagen) following the manufacturer's protocol and including the optional DNase I treatment step. RNA quality was assessed on a Bioanalyzer 2100 (Agilent Technologies, Santa Clara, Calif., USA). mRNA was extracted from total RNA using a Dynal mRNA Direct kit, fragmented and reverse transcribed to double stranded cDNA with random primers before addition of adapters for library preparation. Library preparation and HiSeq2500 sequencing were performed by the Washington University Genome Technology Access Center (gtac.wustl.edu). FastQ files were aligned to the transcriptome and the whole-genome with STAR. Biologic replicates were simultaneously analyzed by edgeR and Sailfish analyses of gene-level/exon-level features. Unexpressed genes and exons were removed from the analyses. Unsupervised principal component analysis and volcano plots were generated in Bioconductor using edgeR. Significance Analysis of Microarrays (SAM), Version 4.0 was used to generate a ranked gene list, and a threshold of q<10% and fold-change >2.0 was then used to select the most highly significant genes that were down regulated in FR-treated versus vehicle control cells. This list was used as signature gene sets for Gene Ontology (GO) analysis and Gene Set Enrichment Analysis (GSEA) (45). […] Significant gene sets from GSEA analyses were combined such that genes associated with multiple related signatures were only counted once and each gene was assigned only to a single combined groupbased on the signature with the highest enrichment score for that gene. Significant gene expression changes were validated in all three UM cell lines by qPCR using fast SYBR Green Mastermix (Fisher Scientific) following the manufacturers' protocol. GAPDH was used as an endogenous control.

92.1 UM cells [2] = test: qPCR validation of FR target genes; format: cell-based, Human; conditions: 92.1 cells; FIG. 10
Experimental: as §3, §4

92.1 UM cells [3] = test: UM cell viability, water-soluble tetrazolium salt assay; conditions: Homo sapiens, read-out: EC50, inhibition of proliferation (viability)
Experimental: Cells were cultured at 37.0 in 5% CO2. […] Cell lines were grown in RPMI 1640 medium (Life Technologies, Carlsbad, Calif.) supplemented with 10% FBS and antibiotics. Cell viability was measured using a water-soluble tetrazolium salt, WTS-8 (Bimake, Houston, Tex.), following the manufacturer's protocol. Flow cytometry for analysis of cell proliferation and apoptosis was performed at the Siteman Cancer Center Flow Cytometry Core on a FACScan analyzer (BD Biosciences, San Diego Calif., USA) using a standard propidium iodide staining protocol as described previously (44).

Gαi/q(R54K) [4] = target: T1, Gαi/q(R54K) (Homo sapiens, UniProt P63096, C351G, form not given); format: cell-based; conditions: read-out: IC50, attenuation of cannabinoid type 1 receptor inhibition of forskolin-induced cAMP accumulation; via Gαi/q(R54K); Neuro2A cells; FIG. 2C
T1 construct: […]
T1 sequence (P63096 whole entry V50I/Y69F/V72L/K180P/V185I/T187Y/H188P/C351G, form open): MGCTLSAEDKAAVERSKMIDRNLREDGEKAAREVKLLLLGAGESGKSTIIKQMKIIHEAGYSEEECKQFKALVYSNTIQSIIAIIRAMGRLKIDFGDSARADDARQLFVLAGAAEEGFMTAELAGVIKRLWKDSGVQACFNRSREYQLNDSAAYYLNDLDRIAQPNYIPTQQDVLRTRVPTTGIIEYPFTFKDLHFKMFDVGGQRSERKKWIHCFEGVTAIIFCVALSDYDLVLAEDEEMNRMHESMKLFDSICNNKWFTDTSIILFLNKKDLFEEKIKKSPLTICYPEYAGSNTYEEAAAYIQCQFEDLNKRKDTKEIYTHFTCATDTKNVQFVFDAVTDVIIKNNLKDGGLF

Gαi/q(R54K) [5] = format: cell-based; conditions: Gαi/q(R54K) vs Gαi/q
Mel202 cells [6] = test: qPCR validation of FR target genes; format: cell-based, Human; conditions: FR-treated Mel202 cells; FIG. 10
Experimental: More important, 42% of genes in this cluster are known targets of the polycomb repressive complex 2 (PRC2) during differentiation from embryonic stem cells (FIG. 7D and Table 5), as indicated by gene set enrichment analysis.
92.1 UM cells were treated with 100 nM FR or vehicle (DMSO) in RPMI growth medium and collected after 1 and 3 d of treatment. RNA was isolated using the RNeasy Mini Kit (Qiagen) following the manufacturer's protocol and including the optional DNase I treatment step. RNA quality was assessed on a Bioanalyzer 2100 (Agilent Technologies, Santa Clara, Calif., USA). mRNA was extracted from total RNA using a Dynal mRNA Direct kit, fragmented and reverse transcribed to double stranded cDNA with random primers before addition of adapters for library preparation. Library preparation and HiSeq2500 sequencing were performed by the Washington University Genome Technology Access Center (gtac.wustl.edu). FastQ files were aligned to the transcriptome and the whole-genome with STAR. Biologic replicates were simultaneously analyzed by edgeR and Sailfish analyses of gene-level/exon-level features. […] Significant gene sets from GSEA analyses were combined such that genes associated with multiple related signatures were only counted once and each gene was assigned only to a single combined groupbased on the signature with the highest enrichment score for that gene. […]

[7] = target: T2, constitutively active Gα13 with the RGS domain of LARG (Homo sapiens, UniProt Q14344, Q226L); test: Split luciferase complementation, Gα interaction with RGS domain of LARG; format: cell-based; conditions: FIG. 1C
T2 construct: expressed in transfected cells; host or cells: HEK-293
T2 sequence (Q14344 1-377 Q226L): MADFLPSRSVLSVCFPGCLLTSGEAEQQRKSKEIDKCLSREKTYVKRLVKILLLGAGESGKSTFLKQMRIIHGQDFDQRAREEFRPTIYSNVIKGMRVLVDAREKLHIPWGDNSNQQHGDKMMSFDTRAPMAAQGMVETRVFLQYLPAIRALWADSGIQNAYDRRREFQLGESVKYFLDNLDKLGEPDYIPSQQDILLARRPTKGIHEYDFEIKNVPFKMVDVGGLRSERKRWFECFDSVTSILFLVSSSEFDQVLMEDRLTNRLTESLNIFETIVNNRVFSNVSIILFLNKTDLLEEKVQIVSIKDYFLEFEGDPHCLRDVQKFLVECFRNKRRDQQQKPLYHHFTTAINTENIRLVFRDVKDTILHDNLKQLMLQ
Source text: (FIG. 1A-1C) depicts the effect of FR on the activity state of Gα subunits as determined by interaction with Gβγ or RGS domains in split luciferase complementation assays. FIG. 1A Effect of FR on interaction of Gβγ2 with the indicated wild type (WT) or mutant constitutively active (Q/L) forms of Gα (q) or Gα13 (13). * p<0.01; ** p<0.05. FIG. 1B Potency of FR as a driver of interaction of Gβγ2 with wild type or mutant constitutively active Gαq. FIG. 1C Potency of FR as inhibitor of interaction of RGS2 with mutant constitutively active (Q/L) Gαq, or interaction of the RGS domain of LARG (LARG-RGS) with mutant constitutively active Gα13. FIG. 1D Potency of FR as inhibitor of signal transduction by constitutively active Gαq or Gα13 detected with an SRE(L) promoter-driven transcriptional reporter. Constitutively active Gαq (Q/L), constitutively active Gαq bearing the indicated FR binding site mutations, and constitutively Gα13 (Q/L) were studied.
To detect protein-protein interactions, a split luciferase complementation assays was used (23), as employed to study activation state-dependent interaction between Gα subunits and cognate binding partners (24).
Split luciferase assays were performed as described (24). […]

`C=C1C(=O)N[C@@H](C)C(=O)N(C)[C@@H](C)C(=O)N[C@H]([C@@H](OC(=O)[C@@H](NC(=O)CC)[C@H](O)C(C)C)C(C)C)C(=O)N(C)[C@@H]([C@H](C)OC)C(=O)O[C@H](C(C)C)[C@H](NC(C)=O)C(=O)O[C@H](Cc2ccccc2)C(=O)N1C` [FR, [(1S)-1-[(3S,6R,9S,12S,18R,21S,22R)-21-acetamido-18-benzyl-3-[(1S)-1-methoxyethyl]-4,9,10,12,16-pentamethyl-15-methylidene-2,5,8,11,14,17,20-heptaoxo-22-propan-2-yl-1,19-dioxa-4,7,10,13,16-pentazacyclodocos-6-yl]-2-methylpropyl] (2S,3R)-3-hydroxy-4-methyl-2-(propanoylamino)pentanoate] (Ac-[X1][dPhLac][NMeDha]A[NMeA][X2](Leu(3R-OH,Nα-propionyl))[NMeaThr](Me); ester 1-C) was tested, and the “effect on YAP-driven transcriptional reporter” value (OCM-1A cells) was “no effect”, the EC50 (Mel202 cells [1]) was 0.8 nM and the EC50 (92.1 cells) was 3 nM. The “expression of PMP22 and DCT (qPCR)” value (OCM-1A UM cells) was “no effect”, the “expression of PRC2 targets ADRA2A, HAND2, SCARF2 and WT1 (qPCR)” value (OCM-1A UM cells) was “unaffected; also recorded: no effect” and the “expression of PMP22 and DCT (qPCR)” value (92.1 UM cells [2]) was “significantly upregulated”. The “expression of PRC2 targets ADRA2A, HAND2, SCARF2 and WT1 (qPCR)” value (92.1 UM cells [2]) was “significant down-regulation”, the EC50 (92.1 UM cells [3]) was 2 nM and the IC50 (Gαi/q(R54K) [4]) was about 800 nM. For the same compound, the “fold less potent than toward Gαi/q, cAMP signaling” value (Gαi/q(R54K) [5]) was about 30 fold, the “RNA-Seq downregulation results checked by quantitative RT-PCR” value (Mel202 cells [6]) was “confirmed” and the “effect on interaction with the RGS domain of LARG” value [7] was “lack of effect”.
